Assay [1] addresses T1, Mitogen-activated protein kinase kinase kinase 6 (Homo sapiens) (UniProt O95382).
T1 sequence (whole entry): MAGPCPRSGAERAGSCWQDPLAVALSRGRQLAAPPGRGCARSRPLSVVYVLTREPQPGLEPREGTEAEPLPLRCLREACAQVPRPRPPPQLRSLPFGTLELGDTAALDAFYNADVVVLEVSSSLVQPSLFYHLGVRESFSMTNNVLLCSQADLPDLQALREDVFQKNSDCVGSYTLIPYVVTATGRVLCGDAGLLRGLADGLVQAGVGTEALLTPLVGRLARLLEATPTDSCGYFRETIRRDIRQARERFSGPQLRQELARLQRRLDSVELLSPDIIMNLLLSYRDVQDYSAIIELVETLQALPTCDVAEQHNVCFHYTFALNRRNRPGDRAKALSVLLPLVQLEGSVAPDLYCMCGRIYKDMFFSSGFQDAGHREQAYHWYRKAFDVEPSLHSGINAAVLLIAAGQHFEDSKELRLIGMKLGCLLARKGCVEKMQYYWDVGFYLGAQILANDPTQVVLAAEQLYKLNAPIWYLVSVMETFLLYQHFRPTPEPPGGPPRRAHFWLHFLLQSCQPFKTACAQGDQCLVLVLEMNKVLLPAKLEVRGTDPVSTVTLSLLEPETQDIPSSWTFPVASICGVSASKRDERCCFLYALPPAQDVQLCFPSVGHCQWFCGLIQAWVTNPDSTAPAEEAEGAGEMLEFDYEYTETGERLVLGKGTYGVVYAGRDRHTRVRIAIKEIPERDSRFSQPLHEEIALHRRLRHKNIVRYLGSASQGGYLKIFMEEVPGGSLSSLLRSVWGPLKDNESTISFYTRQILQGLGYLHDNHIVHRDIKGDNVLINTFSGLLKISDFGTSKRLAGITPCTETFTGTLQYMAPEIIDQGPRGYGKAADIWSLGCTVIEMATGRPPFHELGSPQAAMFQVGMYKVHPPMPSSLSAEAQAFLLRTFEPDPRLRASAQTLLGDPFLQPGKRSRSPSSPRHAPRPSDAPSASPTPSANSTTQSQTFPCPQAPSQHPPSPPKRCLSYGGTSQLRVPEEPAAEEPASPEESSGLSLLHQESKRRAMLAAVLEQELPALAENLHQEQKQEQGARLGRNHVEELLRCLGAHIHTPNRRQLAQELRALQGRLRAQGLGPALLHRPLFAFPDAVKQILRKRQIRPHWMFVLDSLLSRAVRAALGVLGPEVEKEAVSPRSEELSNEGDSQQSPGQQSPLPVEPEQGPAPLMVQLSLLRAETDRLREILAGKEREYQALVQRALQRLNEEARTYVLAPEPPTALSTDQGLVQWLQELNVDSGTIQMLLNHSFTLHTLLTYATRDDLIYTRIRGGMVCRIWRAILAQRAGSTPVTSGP
As to the kind of experiment: Selectivity interaction (KinomeScan (DiscoverX)) EUB0001049a MAP3K6. The settings on record: at 1 µM.

Assay [2] addresses T2, Serine/threonine-protein kinase PLK4 (Homo sapiens) (UniProt O00444).
T2 sequence (whole entry): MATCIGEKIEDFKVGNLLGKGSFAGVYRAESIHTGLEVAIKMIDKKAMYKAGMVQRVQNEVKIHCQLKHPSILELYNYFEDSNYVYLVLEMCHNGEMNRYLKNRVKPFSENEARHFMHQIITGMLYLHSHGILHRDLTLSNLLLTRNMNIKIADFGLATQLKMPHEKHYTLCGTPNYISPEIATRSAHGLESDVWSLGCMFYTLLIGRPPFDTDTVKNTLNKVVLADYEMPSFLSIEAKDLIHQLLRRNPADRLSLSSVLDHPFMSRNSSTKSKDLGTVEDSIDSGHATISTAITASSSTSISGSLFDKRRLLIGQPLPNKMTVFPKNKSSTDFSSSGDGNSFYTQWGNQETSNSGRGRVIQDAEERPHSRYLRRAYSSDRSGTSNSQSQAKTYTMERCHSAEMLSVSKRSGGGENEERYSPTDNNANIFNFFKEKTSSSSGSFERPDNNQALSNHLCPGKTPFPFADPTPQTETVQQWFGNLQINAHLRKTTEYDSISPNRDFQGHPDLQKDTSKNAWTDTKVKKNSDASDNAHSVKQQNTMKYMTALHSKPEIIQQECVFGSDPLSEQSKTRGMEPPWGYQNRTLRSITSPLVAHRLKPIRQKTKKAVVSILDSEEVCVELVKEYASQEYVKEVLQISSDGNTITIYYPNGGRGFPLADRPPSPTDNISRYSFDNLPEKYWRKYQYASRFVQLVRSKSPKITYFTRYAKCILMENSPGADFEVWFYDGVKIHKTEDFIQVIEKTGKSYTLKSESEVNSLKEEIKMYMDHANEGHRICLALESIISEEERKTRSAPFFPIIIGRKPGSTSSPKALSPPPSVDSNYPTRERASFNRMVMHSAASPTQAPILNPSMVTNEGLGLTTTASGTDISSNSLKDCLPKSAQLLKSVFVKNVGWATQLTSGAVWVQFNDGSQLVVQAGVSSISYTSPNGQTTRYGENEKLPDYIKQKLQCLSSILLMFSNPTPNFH
As to the kind of experiment: Selectivity interaction (KinomeScan (DiscoverX)) EUB0001079a PLK4. Conditions: at 1 µM.

The values below come from ChEMBL document CHEMBL5465560, “Selectivity Literature for EUbOPEN Chemogenomic Library” (2024).

`COc1cc(Nc2nc(C)cc(-c3cnn4nc(OC)ccc34)n2)cc(C(F)(F)F)c1` yielded a % of control in assay [1] of 66%.
In assay [2], `Nc1cnc(N2CCc3cc(S(=O)(=O)Nc4c(F)cc(Cl)cc4F)cc(N4CCCC4=O)c32)nc1` [TP-020n] returned a % of control of 100%.
